According to patent publication US6864266B2, “4-piperidinyl alkyl amine derivatives as muscarinic receptor antagonists” (Syntex (U.S.A.) LLC, priority 2001, dated 2005):

What was measured:
[1] = target: T1, recombinant human muscarinic receptor m3 (Homo sapiens, UniProt P20309); test: Radioligand binding studies, [3H]N-methyl scopolamine, scintillation proximity assay; details: CHO cell membranes, pIC50 converted to pKi by Cheng-Prusoff
T1 construct: expressed in transfected cells; host or cells: Chinese hamster ovary (CHO) cells, membrane preparation
T1 sequence (P20309 whole entry): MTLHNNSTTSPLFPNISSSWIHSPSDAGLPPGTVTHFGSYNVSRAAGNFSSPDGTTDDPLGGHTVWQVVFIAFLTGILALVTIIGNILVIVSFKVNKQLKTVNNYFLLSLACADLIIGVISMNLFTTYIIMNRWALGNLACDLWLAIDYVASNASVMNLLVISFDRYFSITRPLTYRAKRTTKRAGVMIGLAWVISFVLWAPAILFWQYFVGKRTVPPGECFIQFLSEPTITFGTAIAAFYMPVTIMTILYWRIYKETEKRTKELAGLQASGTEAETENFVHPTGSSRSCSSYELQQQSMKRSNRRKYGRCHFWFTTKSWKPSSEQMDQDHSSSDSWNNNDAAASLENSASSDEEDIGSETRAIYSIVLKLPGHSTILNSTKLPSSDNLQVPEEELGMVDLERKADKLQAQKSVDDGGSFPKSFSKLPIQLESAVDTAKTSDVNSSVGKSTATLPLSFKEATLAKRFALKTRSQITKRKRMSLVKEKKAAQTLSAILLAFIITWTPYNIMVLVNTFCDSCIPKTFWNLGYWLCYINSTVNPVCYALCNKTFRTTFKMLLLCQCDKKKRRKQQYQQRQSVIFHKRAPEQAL
Protocol: (§1) The compounds of this invention are muscarinic receptor antagonists. The muscarinic receptor affinity of test compounds can be determined by an in vitro receptor binding assay which utilizes a cell membrane preparation from the Chinese hamster ovary cells expressing the recombinant human muscarinic receptors (M1-M5), and is described in more detail in Example 18.
(§2) The inhibitory activity of compounds of this invention in vitro was determined using a modification of the method described in Hegde, S. S. et al. (1997) Br. J. Pharmacol., 120, 1409-1418.
(§3) Cell membranes from Chinese hamster ovary cells expressing the recombinant human muscarinic receptors (m1-m5) were employed. The assays were conducted with the radioligand [^3H]N-methyl scopolamine(0.4 nM, specific activity 84 Ci·mmol^−1) in a final volume of 0.25 mL Tris-Krebs buffer. Non-specific binding was defined with 1 μM atropine. Assays were performed using scintillation proximity assay technology. Competition-displacement curves were generated using 10 concentrations of test compounds and were analyzed by iterative curve fitting to a four parameter logistic equation. pIC50 values (−log of the IC50) were converted to pKi values using the Cheng-Prusoff equation.

[2] = target: T2, recombinant human muscarinic receptor m2 (Homo sapiens, UniProt P08172); test: as above; details: CHO cell membranes, pIC50 converted to pKi by Cheng-Prusoff
T2 construct: expressed in transfected cells; host or cells: Chinese hamster ovary (CHO) cells, membrane preparation
T2 sequence (P08172 1-466): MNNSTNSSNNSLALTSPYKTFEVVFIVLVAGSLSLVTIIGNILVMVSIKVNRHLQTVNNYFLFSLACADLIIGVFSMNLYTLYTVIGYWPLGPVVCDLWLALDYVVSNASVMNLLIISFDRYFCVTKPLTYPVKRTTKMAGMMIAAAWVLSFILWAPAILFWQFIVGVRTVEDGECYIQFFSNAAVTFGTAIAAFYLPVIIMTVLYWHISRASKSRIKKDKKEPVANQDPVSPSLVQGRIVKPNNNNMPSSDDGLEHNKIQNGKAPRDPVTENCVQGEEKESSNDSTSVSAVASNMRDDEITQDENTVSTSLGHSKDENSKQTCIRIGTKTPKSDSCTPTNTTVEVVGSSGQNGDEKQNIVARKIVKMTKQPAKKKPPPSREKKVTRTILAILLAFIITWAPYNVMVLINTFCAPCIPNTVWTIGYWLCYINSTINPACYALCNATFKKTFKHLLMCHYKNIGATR
Protocol: as §1, §2, §3

CCN(CC1CCN(C(=O)N2CCOCC2)CC1)C1CCc2ccc(NC(=O)c3ccc(S(C)(=O)=O)cc3)cc2C1 (stereo not drawn) [Cpd 2, N-(7-{ethyl-[1-(morpholine-4-carbonyl)-piperidin-4-ylmethyl]-amino}-5,6,7,8-tetrahydro-naphthalen-2-yl)-4-methanesulfonyl-benzamide]
Ki [1]: 1200 nM
Ki [2]: 47.9 nM

CCN(CC1CCN(C(=O)NC(C)C)CC1)C1CCc2ccc(NC(=O)c3ccc(F)cc3)cc2C1 (stereo not drawn) [Cpd 7, 4-({ethyl-[7-(4-fluoro-benzoylamino)-1,2,3,4-tetrahydro-naphthalen-2-yl]-amino}-methyl)-piperidine-1-carboxylic acid isopropylamide]
Ki [1]: 646 nM
Ki [2]: 10.5 nM

CCCN(CC1CCN(C(=O)NC)CC1)C1CCc2ccc(OC)cc2C1 (stereo not drawn) [Cpd 25, 4-{[(7-methoxy-1,2,3,4-tetrahydro-naphthalen-2-yl)-propyl-amino]-methyl}-piperidine-1-carboxylic acid methylamide]
Ki [1]: 102 nM
Ki [2]: 25.1 nM

CCCN(CC1CCN(C(=O)c2ccco2)CC1)C1CCc2cc(OC)c(OC)cc2C1 (stereo not drawn) [Cpd 70, (4-{[(6,7-dimethoxy-1,2,3,4-tetrahydro-naphthalen-2-yl)-propyl-amino]-methyl}-piperidin-1-yl)-furan-2-yl-methanone]
Ki [1]: 331 nM
Ki [2]: 42.7 nM

CCCN(CC1CCN(S(C)(=O)=O)CC1)C1CCc2ccc(N)cc2C1 (stereo not drawn) [Cpd 85, N-(1-methanesulfonyl-piperidin-4-ylmethyl)-N-propyl-1,2,3,4-tetrahydro-naphthalene-2,7-diamine]
Ki [1]: 166 nM
Ki [2]: 12.9 nM

CCCN(CC1CCN(C(=O)N2CCOCC2)CC1)C1CCc2ccc(N)cc2C1 (stereo not drawn) [Cpd 95, (4-{[(7-amino-1,2,3,4-tetrahydro-naphthalen-2-yl)-propyl-amino]-methyl}-piperidin-1-yl)-morpholin-4-yl-methanone]
Ki [1]: 186 nM
Ki [2]: 5.25 nM

CCCN(CC1CCN(S(C)(=O)=O)CC1)C1CCc2ccc(OCC)cc2C1 (stereo not drawn) [Cpd 104, (7-ethoxy-1,2,3,4-tetrahydro-naphthalen-2-yl)-(1-methanesulfonyl-piperidin-4-ylmethyl)-propyl-amine]
Ki [1]: 46.8 nM
Ki [2]: 16.2 nM

CCCN(CC1CCN(C(=O)c2ccno2)CC1)C1CCc2ccc(OS(=O)(=O)C(F)(F)F)cc2C1 (stereo not drawn) [Cpd 107, trifluoro-methanesulfonic acid 7-{[1-(isoxazole-5-carbonyl)-piperidin-4-ylmethyl]-propyl-amino}-5,6,7,8-tetrahydro-naphthalen-2-yl ester]
Ki [1]: 148 nM
Ki [2]: 16.2 nM

CCCN(CC1CCN(C(=O)C2CCNCC2)CC1)C1CCc2ccc(OS(=O)(=O)c3c(C)noc3C)cc2C1 (stereo not drawn) [Cpd 114, 3,5-dimethyl-isoxazole-4-sulfonic acid 7-{[1-(piperidine-4-carbonyl)-piperidin-4-ylmethyl]-propyl-amino}-5,6,7,8-tetrahydro-naphthalen-2-yl ester]
Ki [1]: 51.3 nM
Ki [2]: 1.26 nM

CCCN(CC1CCN(C(=O)N2CCN(C)CC2)CC1)C1CCc2ccc(OS(=O)(=O)c3c(C)noc3C)cc2C1 (stereo not drawn) [Cpd 115, 3,5-dimethyl-isoxazole-4-sulfonic acid 7-{[1-(4-methyl-piperazine-1-carbonyl)-piperidin-4-ylmethyl]-propyl-amino}-5,6,7,8-tetrahydro-naphthalen-2-yl ester]
Ki [1]: 67.6 nM
Ki [2]: 21.9 nM

CCCN(CCC1CCN(C(=O)C2CCNCC2)CC1)[C@@H]1CCc2ccc(OC)cc2C1 [Cpd 116, (4-{2-[((R)-7-methoxy-1,2,3,4-tetrahydro-naphthalen-2-yl)-propyl-amino]-ethyl}-piperidin-1-yl)-piperidin-4-yl-methanone]
Ki [1]: 5130 nM
Ki [2]: 2.51 nM

CCCN(CC1CCN(S(C)(=O)=O)CC1)C1CCc2ccc(-c3ccco3)cc2C1 (stereo not drawn) [Cpd 117, (7-furan-2-yl-1,2,3,4-tetrahydro-naphthalen-2-yl)-(1-methanesulfonyl-piperidin-4-ylmethyl)-propyl-amine]
Ki [1]: 603 nM
Ki [2]: 141 nM
